Source: US20090176817A1, “Method of Treatment of Diarrhea-Predominant Irritable Bowel Syndrome in a Subject” (priority 2005, published 2009)
Marks after values point to notes of the source that are not given here.

Columns and labels:
[1] = test system: healthy subjects; experiment: Study K.241.5009: esophageal motility; type: in vivo, human; conditions: mean
Protocol: The effect of cilansetron on esophageal motility was evaluated in a randomized, double-blind, placebo-controlled, 3-way crossover study in 12 male healthy subjects (ITT population), aged 32-62 years. Subjects received placebo, cilansetron 4 mg, or cilansetron 8 mg administered orally TID for 7 days during each of the 3 periods, with a 7-day washout between periods. Before conduct of esophageal distension tests using an intraesophageal balloon, primary esophageal motility was induced by at least 5 wet swallows of 5 mL water and […] manometrically registered. Amplitude and duration of esophageal contractions were measured in 3 channels proximal and distal to the balloon and the velocity of propagation of contractions was […] measured over the 2 inter-channel intervals. […] For velocity of propagation, a slight trend towards […] reduced velocity with increasing cilansetron dose was found in the 7-2 cm interval but not in the 17-7 cm interval, and there was no effects seen on onset in either interval.

[2] = test system: healthy subjects; experiment: Study K.241.5012: colonic transit time, healthy young subjects; type: in vivo, human; conditions: mean (SD); for Transit Times, Colon Total: null hypothesis not rejected vs placebo
Excerpt: (§1) The effect of cilansetron on gastric emptying time and colonic transit time has been studied in 1 clinical study in healthy young subjects and 2 studies in elderly subjects. For measurement of gastric emptying time, breath samples for the determination of the ^12C/^13C ratio were taken on the last day of each treatment period immediately after ingestion of a ^13C labeled meal. The patients' breath was collected in separate 15-minute intervals, for four hours in total. ^13CO2 measurements were performed with an isotope ratio mass spectrometer. The half-life (TK) and lag-time (Tlag), which describe the duration of gastric emptying, were used as the primary parameters to evaluate gastric emptying time. In all 3 studies, colonic transit time was measured by administration of radio-opaque markers for the last six days of each treatment period, followed by a single abdominal X-ray image at 24 hours after ingestion of the last set of markers. The numbers of markers within the colon were used to calculate segmental (right colon, left colon, and rectosigmoid) and total colonic transit time.
Study K.241.5013 was a randomized, double-blind, placebo-controlled, 3-way crossover study in 12 healthy male subjects (ITT population), aged 20-27 years. Subjects received cilansetron 4 mg, cilansetron 8 mg, or placebo orally TID for 14 days during each of the treatment periods, with a 14-day washout between periods. The primary efficacy parameter was the total mean colonic transit time during each treatment and the secondary parameters were the segmental colonic transit times and the gastric emptying measurements. A one-sided Dunnett t-test procedure was used to compare efficacy parameters between the cilansetron and placebo treatments.

[3] = test system: healthy, elderly subjects; experiment: Study K.241.5013: gastric emptying time, elderly, 4 mg TID; type: in vivo, human; conditions: 4 mg TID oral 14 days, mean (SD)
Excerpt: as §1
Studies K.241.5013 and K.241.5014 were randomized, double-blind, placebo-controlled, 2-way crossover studies in 8 healthy male and female elderly subjects, each (ITT population, aged 64-83 years in K.241.5013 and 66-84 years in K.241.5014). […]

[4] = clinical; conditions: human, in vivo
Protocol: Two randomized, double-blind, placebo controlled, balanced incomplete block design, crossover studies evaluated the single- and multiple-dose pharmacokinetics of oral cilansetron over a 8 mg to 32 mg dose range. In both studies, subjects were randomized to receive two of three treatments during 2 treatment periods. In one study (12 male and 13 female subjects, aged 23 to 36 years), subjects received 8 mg cilansetron, 16 mg cilansetron, or placebo, while in another study (12 males and 13 females, aged 23 to 41 years), subjects received 16 mg cilansetron, 32 mg cilansetron, or placebo. During each treatment period, subjects received a single dose of their assigned treatment on the first day, followed by a 3-day washout, after which they received the same treatment TID for 5 days.
There was a 5-6 day washout period between treatment periods. Doses on the mornings of pharmacokinetic days were administered under fasted conditions. Serial blood sampling and urine collection was performed up to 12 hours following morning dosing on the first day (single dose) and on the last multiple dosing day of each treatment period, and cilansetron pharmacokinetic parameters were evaluated.
In two randomized, double-blind, placebo controlled, balanced incomplete block design, crossover studies evaluating the single- and multiple-dose pharmacokinetics of oral cilansetron over a 8 mg to 32 mg dose range, subjects were randomized to receive two of three treatments during 2 treatment periods. In Study S.241.1.101; (12 male and 13 female subjects, aged 23 to 36 years), subjects received 8 mg cilansetron, 16 mg cilansetron, or placebo, while in Study S.24 1.1.102; (12 males and 13 females, aged 23 to 41 years), subjects received 16 mg cilansetron, 32 mg cilansetron, or placebo. During each treatment period, subjects received a single dose of their assigned treatment on the first day, followed by a 3-day washout, after which they received the same treatment TID for 5 days. There was a 5-6 day washout period between treatment periods. Doses on the mornings of pharmacokinetic days were administered under fasted conditions. Serial blood sampling and urine collection was performed up to 12 hours following morning dosing on the first day (single dose) and on the last multiple dosing day of each treatment period, and cilansetron pharmacokinetic parameters were evaluated.

[5] = clinical; conditions: human, in vivo, 16 mg
Protocol: In a single-dose, crossover study conducted to evaluate the potential for a drug-drug interaction between liquid Maalox and cilansetron, 12 male and 12-female subjects (aged 19-39 years) received single doses of cilansetron 16 mg alone and cilansetron 16 mg+Maalox in a crossover fashion under fasted conditions. Blood samples for measurement of plasma cilansetron pharmacokinetics were collected up to 24 hours postdose following each treatment.
The effect of concomitantly administered antacid (liquid Maalox) on the pharmacokinetics of cilansetron has been evaluated in a single-dose, crossover study in 24 healthy, male and female subjects, aged 19 to 39 years. Subjects received the following two treatments during each of the study periods in a crossover fashion: a single oral dose of cilansetron 16 mg tablet (reference treatment); a single oral dose of cilansetron 16 mg tablet+20 mL oral Maalox liquid administered every 4 hours (test treatment; 4 doses of Maalox in total; cilansetron was administered 5 minutes after the first dose of Maalox). Both cilansetron treatments were administered under fasted conditions.

[6] = channel 2 cm, 4 mg TID oral 7 days
[7] = channel 2 cm, 8 mg TID oral 7 days
[8] = channel 7 cm, 4 mg TID oral 7 days
[9] = channel 7 cm, 8 mg TID oral 7 days
[10] = channel 17 cm, 4 mg TID oral 7 days
[11] = channel 17 cm, 8 mg TID oral 7 days
[12] = inter-channel interval 7-2 cm, 4 mg TID oral 7 days
[13] = inter-channel interval 7-2 cm, 8 mg TID oral 7 days
[14] = inter-channel interval 17-7 cm, 4 mg TID oral 7 days
[15] = inter-channel interval 17-7 cm, 8 mg TID oral 7 days

Cc1nccn1C[C@H]1CCc2c(c3cccc4c3n2CCC4)C1=O [Cilansetron, (R)-(−)-4,5,6,8,9,10-hexahydro-10-[(2-methyl-1H-imidazol-1-yl)methyl]-11H-pyrido-[3,2,1-jk]-carbazol-11-one]
Contraction Force Amplitude, Absolute Values [1, 6]: 88.3 mmHg | Contraction Force Amplitude, Change from Placebo [1, 6]: −4.2 mmHg | Contraction Force Duration, Absolute Values [1, 6]: 4.5 s | Contraction Force Duration, Change from Placebo [1, 6]: -0.0 s | Contraction Force Amplitude, Absolute Values [1, 7]: 85.5 mmHg | Contraction Force Amplitude, Change from Placebo [1, 7]: −7.1 mmHg | Contraction Force Duration, Absolute Values [1, 7]: 5.0 s | Contraction Force Duration, Change from Placebo [1, 7]: 0.4 s | Contraction Force Amplitude, Absolute Values [1, 8]: 84.7 mmHg | Contraction Force Amplitude, Change from Placebo [1, 8]: −3.6 mmHg | Contraction Force Duration, Absolute Values [1, 8]: 3.7 s | Contraction Force Duration, Change from Placebo [1, 8]: -0.5 s | Contraction Force Amplitude, Absolute Values [1, 9]: 85.4 mmHg | Contraction Force Amplitude, Change from Placebo [1, 9]: −2.8 mmHg | Contraction Force Duration, Absolute Values [1, 9]: 4.0 s | Contraction Force Duration, Change from Placebo [1, 9]: -0.2 s | Contraction Force Amplitude, Absolute Values [1, 10]: 61.5 mmHg | Contraction Force Amplitude, Change from Placebo [1, 10]: −5.3 mmHg | Contraction Force Duration, Absolute Values [1, 10]: 3.0 s | Contraction Force Duration, Change from Placebo [1, 10]: 0.1 s | Contraction Force Amplitude, Absolute Values [1, 11]: 59.3 mmHg | Contraction Force Amplitude, Change from Placebo [1, 11]: −7.5 mmHg | Contraction Force Duration, Absolute Values [1, 11]: 2.9 s | Contraction Force Duration, Change from Placebo [1, 11]: -0.0 s | Velocity of Propagation, Onset, Absolute Values [1, 12]: 3.7 cm/sec | Velocity of Propagation, Onset, Change from Placebo [1, 12]: 0.4 cm/sec | Velocity of Propagation, Peak, Absolute Values [1, 12]: 3.6 cm/sec | Velocity of Propagation, Peak, Change from Placebo [1, 12]: −0.2 cm/sec | Velocity of Propagation, Onset, Absolute Values [1, 13]: 3.5 cm/sec | Velocity of Propagation, Onset, Change from Placebo [1, 13]: 0.2 cm/sec | Velocity of Propagation, Peak, Absolute Values [1, 13]: 3.3 cm/sec | Velocity of Propagation, Peak, Change from Placebo [1, 13]: −0.5 cm/sec | Velocity of Propagation, Onset, Absolute Values [1, 14]: 2.3 cm/sec | Velocity of Propagation, Onset, Change from Placebo [1, 14]: 0.0 cm/sec | Velocity of Propagation, Peak, Absolute Values [1, 14]: 2.8 cm/sec | Velocity of Propagation, Peak, Change from Placebo [1, 14]: 0.1 cm/sec | Velocity of Propagation, Onset, Absolute Values [1, 15]: 2.3 cm/sec | Velocity of Propagation, Onset, Change from Placebo [1, 15]: −0.0 cm/sec | Velocity of Propagation, Peak, Absolute Values [1, 15]: 2.7 cm/sec | Velocity of Propagation, Peak, Change from Placebo [1, 15]: 0.0 cm/sec | Transit Times, Colonic Segments Left ([2]; 4 mg TID oral 14 days): 24.2 (12.9) hours | Transit Times, Colonic Segments Rectosigmold ([2]; 4 mg TID oral 14 days): 15.8 (13.5) hours | Transit Times, Colonic Segments Right ([2]; 4 mg TID oral 14 days): 9.4 (9.5) hours | Transit Times, Colon Total ([2]; 4 mg TID oral 14 days): 49.4 (24.6)^a hours | Transit Times, Colonic Segments Left ([2]; 8 mg TID oral 14 days): 25.8 (16.7) hours | Transit Times, Colonic Segments Rectosigmold ([2]; 8 mg TID oral 14 days): 16.2 (11.9) hours | Transit Times, Colonic Segments Right ([2]; 8 mg TID oral 14 days): 11.8 (13.9) hours | Transit Times, Colon Total ([2]; 8 mg TID oral 14 days): 53.8 (28.5)^a hours | gastric emptying time Tlag [3]: 122 (24) min | gastric emptying time T½ [3]: 183 (32) min | Tmax ([4]; both): 1 h | Tmax ([4]; both, 8 mg): 1 h | AUC ([4]; both, 8 mg): 112 ng·h/mL | Cmax ([4]; both, 8 mg): 43.3 ng/mL | half-life ([4]; both, 8 mg, T½): 1.44 h | half-life ([4]; both, 16 mg, T½): 1.3 h | half-life ([4]; both, Mean half-life): 1.2 to 1.4 h | Tmax ([4]; female, 8 mg): 1 h | AUC ([4]; female, 8 mg): 104 ng·h/mL | Cmax ([4]; female, 8 mg): 43.2 ng/mL | half-life ([4]; female, 8 mg, T½): 1.41 h | Tmax ([4]; female, po, 8 mg): 1 h | AUC ([4]; female, po, 8 mg): 138 ng·h/mL | Cmax ([4]; female, po, 8 mg): 52.2 ng/mL | half-life ([4]; female, po, 8 mg, T½): 1.45 h | Tmax ([4]; female, po, 16 mg): 1 h | Tmax ([4]; male, 8 mg): 1 h | AUC ([4]; male, 8 mg): 74.5 ng·h/mL | Cmax ([4]; male, 8 mg): 35.8 ng/mL | half-life ([4]; male, 8 mg, T½): 1.22 h | Tmax ([4]; male, po, 8 mg): 1 h | AUC ([4]; male, po, 8 mg): 89.9 ng·h/mL | Cmax ([4]; male, po, 8 mg): 35.5 ng/mL | half-life ([4]; male, po, 8 mg, T½): 1.44 h | Tmax ([4]; male, po, 16 mg): 1 h | AUC(0-inf) ([5]; both): 264 ng·h/mL | AUC(0-t) ([5]; both): 264 ng·h/mL | Cmax ([5]; both): 102 ng/mL | Vd/F ([5]; both): 237 L | half-life ([5]; both): 2.39 h | AUC(0-inf) ([5]; female): 361 ng·h/mL | AUC(0-t) ([5]; female): 360 ng·h/mL | Cmax ([5]; female): 137 ng/mL | Vd/F ([5]; female): 202 L | half-life ([5]; female): 2.97 h | AUC(0-inf) ([5]; male): 159 ng·h/mL | AUC(0-t) ([5]; male): 159 ng·h/mL | Cmax ([5]; male): 63.1 ng/mL | Vd/F ([5]; male): 276 L | half-life ([5]; male): 1.75 h
